From EP1844786A1, “Extracts of Curcuma longa and their cosmetic and dermatological uses” (EXSYMOL S.A.M., priority 2006, dated 2007) come the findings set out here.

Where two headings read alike, the source gives them in different places.

For the assay, the system named is métabolisation de la testostérone dans des épidermes reconstruits d'origine humaine. As to the kind of experiment: Effect on testosterone metabolisation in reconstructed human epidermis (Test 1; labelled testosterone, silica-plate chromatography, radioactivity counting). In kind it is cell-based. As to conditions: 10^-4M; for inhibition at 100 µM: relative to untreated control, 24 h, mean of 3 epidermes. From the text: Test 1 : mise en évidence de l'effet d'un extrait de Curcuma longa sur la métabolisation de la testostérone dans des épidermes reconstruits d'origine humaine (fournisseur : SkinEthic®).
Ces épidermes constituent un matériel biologique présentant une forte homologie avec l'épiderme humain, et permettant de tester de manière réaliste un produit destiné à être appliqué à la surface de la peau. Un extrait glycolique de feuilles de Curcuma longa a donc été testé, à différentes concentrations. Leur action a par ailleurs été comparée à celle d'un inhibiteur spécifique de la 5-alpha-réductase, le Finastéride® (molécule de référence dans ce type d'évaluation). Des épidermes reconstruits de 17 jours ont ainsi été pré-cultivés en plaque 24 puits, pendant 24 heures. Puis 100 µl de testostérone marquée ont été déposés sur la face cornée de chaque épiderme. Après 24 nouvelles heures, les milieux de culture ont été prélevés pour analyse. Il est alors regardé la métabolisation de la testostérone par chromatographie sur plaque de silice et par comptage direct de la radioactivité des différents spots, à l'aide du logiciel "Optiquant version 3 (packard)". Différents métabolites, et en particulier la dihydrotestostérone (DHT), sont identifiés à l'aide de standards. Chaque point est la moyenne de 3 mesures effectuées sur des épidermes différents.

On to `CC(C)(C)NC(=O)[C@H]1CC[C@H]2[C@@H]3CC[C@H]4NC(=O)C=C[C@]4(C)[C@H]3CC[C@]12C` [Finastéride], for which the inhibition at 100 µM is 54% (read-out: % inhibition métabolisation testostérone) and 92% (read-out: % inhibition transformation en DHT). In addition, where the note is “untreated control 2,2”, the “Ratio DHT/testo.” value is recorded as 0,1.
